Measurements from patent US12644133B2, “Methods and compositions to increase somatic cell nuclear transfer (SCNT) efficiency by removing histone H3-lysine trimethylation” (The Children's Medical Center Corporation, priority 2014, dated 2026).

How the values were obtained:
[1] = system: SCNT embryos transferred to pseudopregnant ICR females; experiment: In vivo development of 2-cell SCNT embryos after embryo transfer (caesarian section at E19.5); design: species or system mouse; settings: for Body weight at birth (g ± SD) / Placenta weight at birth (g ± SD) / No. of implanted / No. of pups / implanted (% per ET) / pups (% per ET): Kdm4d mRNA 1800 ng/μl
From the text: Two-cell stage embryos generated by SCNT or in vitro fertilization were transferred to the oviducts of pseudopregnant (E0.5) ICR females. The pups were recovered by caesarian section on the day of delivery (E19.5) and nursed by lactating ICR females.

[2] = system: SCNT blastocysts; experiment: ntESC derivation from SCNT blastocysts; assay type: cell-based, mouse; settings: for No. of blastocyst attached to feeder cells / No. of established ntESC lines / blastocyst attached to feeder cells (% per blast) / established ntESC lines (% per MII oocyte) / established ntESC lines (% per blast): cumulus donor cells (BDF1, female)
Protocol: Blastocysts were denuded by acid tyrode treatment and cultured on mitomycin treated MEF feeder cells and in DMEM supplemented with 5% FBS, 10% KnockOut serum replacement (Life Technologies #10828-028), 0.1 mM non-essential amino acids, 2 mM GlutaMAX, 50 U/ml penicillin-streptomycin, 0.1 mM 2-mercaptoethanol and 2000 U leukemia inhibitory factor (LIF, Millipore #ESG1107) at 37° C. 5% CO2. Four to five days later, outgrowths from attached embryos were dissociated with 0.25% trypsin and passaged all onto new feeder cells. On the following day, the medium was replaced with N2B27-LIF media [DMEM/F12 (Life Technologies #10565-042) supplemented with 0.1 mM non-essential amino acids, 2 mM GlutaMAX, 50 U/ml penicillin-streptomycin, 0.1 mM 2-mercaptoethanol, 0.5×N2 supplement (Life technologies #17502-048), 0.5× B27 supplement (Life technologies #17504-044), […] CHIR99021 (STEMGENT #04-0004), 0.5 μM PD0325901 (STEMGENT #04-0006) and 1000 U LIF]. Five days later, expanded cells were reseeded as established ntESC.

[3] = Sertoli donor cells (BDF1, male)
[4] = Sertoli donor cells (BDF1, male), E19.5
[5] = Sertoli donor cells (BDF1, male), E19.5, listed as Kdm4d
[6] = Sertoli donor cells (BDF1, male), E19.5, listed as Kdm4d WT
[7] = cumulus donor cells (BDF1, female)
[8] = cumulus donor cells (BDF1, female), E19.5
[9] = TSA treatment 15 nM for 8 h, water or mRNA 1800 ng/μl injected

## Kdm4d WT mRNA: in vitro transcribed full length mouse Kdm4d mRNA, encoding an H3K9me3-specific histone demethylase
[1]; [3]
  Body weight at birth (g ± SD): 1.48 ± 0.11 g
  Placenta weight at birth (g ± SD): 0.26 ± 0.10 g
[1]; [4]
  No. of implanted: 59
  No. of pups: 8
[1]; [5]
  implanted (% per ET): 64%
  pups (% per ET): 8.7%
[1]; [6]
  implanted (% per ET): 64.1%
  pups (% per ET): (8.7) %
[1]; [7]
  Body weight at birth (g ± SD): 1.60 ± 0.15 g
  Placenta weight at birth (g ± SD): 0.32 ± 0.03 g
[1]; [8]
  No. of implanted: 75
  No. of pups: 9
  implanted (% per ET): 63.0%
[1]; cumulus donor cells (BDF1, female), E19.5, listed as Kdm4d
  pups (% per ET): 7.6%
[1]; cumulus donor cells (BDF1, female), E19.5, listed as Kdm4d WT
  pups (% per ET): (7.6) %
[1]; cumulus donor cells, E19.5
  rate of implantation relative to control SCNT embryos: 3 fold
[1]; mouse, in vivo
  growth and fertility of SCNT pups (in words): grew normally to adulthood and generated offspring by natural mating
[2]; SCNT blastocysts from cumulus donor cells
  efficiency of attachment or ntESC derivation per blastocyst, compared to control (in words): did not show any significant difference
[2]; cumulus donor cells
  ntESC derivation efficiency based on the total number of MII oocytes used for SCNT (in words): greatly improved
[2]; [9]
  No. of blastocyst attached to feeder cells: 16
  No. of established ntESC lines: 11
  blastocyst attached to feeder cells (% per blast): 76.2%
  established ntESC lines (% per MII oocyte): (44.0) %
  established ntESC lines (% per blast): (52.3) %
[2]; no TSA, mRNA 1800 ng/μl
  No. of blastocyst attached to feeder cells: 13
  No. of established ntESC lines: 10
  blastocyst attached to feeder cells (% per blast): 72.2%
  established ntESC lines (% per MII oocyte): (50.0) %
  established ntESC lines (% per blast): (55.6) %
